This is an account of results in patent publication US20260226049A1, “NITROGEN-CONTAINING HETEROCYCLIC COMPOUND, PREPARATION METHOD THEREFOR, AND USE THEREOF” (BIVISION PHARMACEUTICALS, INC, priority 2023, published 2026).

In one data set the target is T1, FAP protein (Homo sapiens, UniProt Q12884).
T1 construct: purchased Sinobiological
T1 sequence (Q12884 1-760): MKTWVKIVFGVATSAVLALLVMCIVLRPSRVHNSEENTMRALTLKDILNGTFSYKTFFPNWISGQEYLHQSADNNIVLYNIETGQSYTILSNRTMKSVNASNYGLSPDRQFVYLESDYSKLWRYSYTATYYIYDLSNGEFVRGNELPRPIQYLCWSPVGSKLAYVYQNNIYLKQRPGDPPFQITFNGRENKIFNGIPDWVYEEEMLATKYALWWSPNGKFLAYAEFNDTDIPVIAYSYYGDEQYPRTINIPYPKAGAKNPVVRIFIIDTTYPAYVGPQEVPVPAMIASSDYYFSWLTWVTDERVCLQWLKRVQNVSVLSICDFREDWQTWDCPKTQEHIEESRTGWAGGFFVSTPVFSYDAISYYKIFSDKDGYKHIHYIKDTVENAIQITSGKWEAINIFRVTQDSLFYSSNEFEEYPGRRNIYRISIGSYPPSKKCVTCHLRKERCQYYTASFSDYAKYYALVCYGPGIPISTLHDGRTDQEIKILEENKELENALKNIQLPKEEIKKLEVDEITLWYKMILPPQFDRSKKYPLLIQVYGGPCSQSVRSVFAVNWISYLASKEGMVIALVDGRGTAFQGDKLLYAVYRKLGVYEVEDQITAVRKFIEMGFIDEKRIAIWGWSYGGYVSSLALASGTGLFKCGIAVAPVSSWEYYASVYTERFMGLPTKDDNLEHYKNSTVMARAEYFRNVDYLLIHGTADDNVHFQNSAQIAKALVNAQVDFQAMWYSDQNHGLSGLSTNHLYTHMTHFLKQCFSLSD
The experiment in a line: Biacore test of ligand binding to FAP protein. The conditions noted are these: FAP protein on SA chip, 15° C., 1:1 binding model. On the procedure: The Biacore 8K (Cytiva) instrument was used to detect ligand binding of the FAP protein (Sinobiological). The FAP protein was captured on the SA chip. Before ligand immobilization (flow paths 1 and 2, flow rate of 10 μL/min), the FAP protein (10 μg/mL, flow rate of 5 μL/min, injection time of 600 s) was immobilized on flow path 2 using running buffer, and the sensor surface was conditioned with three consecutive injections of 1 M NaCl in 50 mM NaOH. After each ligand injection, additional washing was carried out with isopropanol in 1 M NaCl and 50 mM NaOH (flow paths 1 and 2, flow rate of 10 μL/min, injection time of 60 s).
The test compounds were dissolved in 100% dimethyl sulfoxide and diluted to 10 mM, then further diluted in the assay buffer (PBS, pH 7.4, 1 mM TCEP ([…]), 0.05% P20, 2% dimethyl sulfoxide) to appropriate maximum concentrations. The analyte was run under the following conditions: analysis temperature=15° C., analysis step=all set to LMW kinetics; cycle type=single cycle (90 s contact time, 1800 s dissociation time, 30 μL/min flow rate, flow channels 1, 2); flow channel detection=2-1). Data evaluation was performed using Biacore Insight Evaluation Software, and the data were fitted to a 1:1 binding model.
The Biacore results are shown in Table 1: pKD=−Log KD, where KD is the binding affinity of the compound to the FAP protein as measured by Biacore. The binding affinity is expressed by KD (M)=Kd(1/s)/Ka(1/Ms). Where A: pKD>8, B: 7<pKD<8, C: 6<pKD<7, D: pKD<6.
For orientation: SPR reads the build-up and loss of mass on a sensor chip optically.

A further data set has as its system HT1080 8 #cells. The experiment in a line: Cell competitive binding assay against ^177Lu-radiolabeled FAPi-46. On the procedure: (1) HT1080 8 #cells in the logarithmic growth phase were prepared into a cell suspension, and the cell density was adjusted to 1×10^4/mL. 1 mL of the suspension was seeded into a 24-well cell culture plate. The plate was incubated overnight in a 37° C. incubator.
(2) The cell culture medium was aspirated, and the cells were washed once with PBS, followed by the addition of 975 μL of additive-free medium.
(3) To each well, 25 µL of ^177Lu-radiolabeled FAPi-46 (Nanchang Tanzhen Biotechnology Co., Ltd., CAS: 2374782-04-2) at a fixed concentration (final concentration in culture medium: 1.35 μCi/mL) and varying concentrations (final concentrations in culture medium: 1000 ng/mL, 100 ng/ml, 10 ng/ml, 1 ng/mL, 0.1 ng/ml, 0.01 ng/mL, 0.001 ng/mL, 0 ng/ml) of unlabeled test compounds JHH8, JHDB8, and JHH9 were added.
(4) The mixture was incubated on ice for 2 hours.
(5) The cells were washed three times with ice-cold PBS.
(6) The cells were lysed with 0.5 mL of 1 M sodium hydroxide, washed twice with 0.5 mL of PBS, and the sodium hydroxide solution (0.5 mL) and PBS solutions (0.5 mL×2) were collected for uptake counting.
The control compound was OncoFAP-DOTAGA (structural formula: […]
The cell competitive binding of compounds JHH5, JHH4, JHH10, JHH8, H4b, H5b, and H8b was tested in the same batch using the above method, and the experimental results are shown in Table 3 and FIG. 3.

The next data set deals with HT1080 2 #FAP cells. The experiment in a line: Tissue distribution in FAP-positive tumor-bearing mice. It counts as in vivo, mice (Balb/c Nude). The note with it: 24 hours after tail vein injection, approximately 3.7 MBq/mouse. An excerpt:
Tissue distribution in FAP-positive tumor-bearing mice: 2×10^6 HT1080 2 #FAP cells (in 50% Matrigel, Corning) were subcutaneously inoculated into the right shoulder of mice (Balb/c Nude, Vital River) aged approximately 6-9 weeks. When the tumors grew to approximately 150-350 mm^3 in size, the following “7. General ^177Lu Labeling Experimental Method” was used to label JHH3, JHH8, JHH9, JHDB7, and JHDB8 compounds. Subsequently, ^177Lu-JHH3, ^177Lu-JHH8, ^177Lu-JHH9, ^177Lu-JHDB7, ^177Lu-JHDB8, and ^177Lu-OncoFAP DOTAGA radiolabeled compounds were injected into the mice via the tail vein (approximately 3.7 MBq/mouse). 24 hours after administration, the animals were euthanized by CO2 inhalation, and blood and organs (liver, kidney, muscle, tumor) were collected after euthanasia.
After organ collection, the samples were rinsed twice with deionized water and dried, then placed in pre-weighed tubes and weighed again to calculate the sample weight. The samples were measured on the day of collection. All blood samples and tissue samples were measured for radioactive counts using a gamma counter.

The mark [1] stands for this setting: EC50 (ng/mL) converted with molecular weight, read-out: EC50.
Where [2] appears, read: competition with ^177Lu-FAPi-46, on ice 2 hours.

Where two headings read alike, the source gives them in different places. Where only a bound is given, the exact number is not on record here.

On to `N#C[C@@H]1CC(F)(F)CC1C(=O)CNC(=O)c1ccc2c(c1)CCCN2C(=O)CCC(=O)NCCNC(=O)CCC(C(=O)O)N1CCN(CC(=O)O)CCN(CC(=O)O)CCN(CC(=O)O)CC1` (stereo partly shown) [JHH8], for which the Kd (usually the constant that tells how readily two partners part at equilibrium) at FAP protein was less than 10 nM. The EC50 (commonly the midpoint of the concentration-response curve) in the data set on HT1080 8 #cells (setting [1]) turned out to be 14.5 nM; in the data set on HT1080 8 #cells (setting [2]) it was 13.77 ng/mL.
Regarding `N#C[C@@H]1CC(F)(F)CN1C(=O)CNC(=O)c1cccc2c1CCCN2C(=O)CCC(=O)NCCNC(=O)CCC(C(=O)O)N1CCN(CC(=O)O)CCN(CC(=O)O)CCN(CC(=O)O)CC1` (stereo partly shown) [JHH10], the Kd at FAP protein is less than 10 nM. Moreover, the EC50 in the data set on HT1080 8 #cells (setting [1]) was determined as 3.56 nM; with HT1080 8 #cells (setting [2]) it was 3.38 ng/mL.
As to `N#C[C@@H]1CC(F)(F)CN1C(=O)CNC(=O)c1ccnc2c(NC(=O)CCC(=O)NCCNC(=O)CCC(C(=O)O)N3CCN(CC(=O)O)CCN(CC(=O)O)CCN(CC(=O)O)CC3)cccc12` (stereo partly shown) [OncoFAP-DOTAGA, reference compound], the EC50 was determined as 2.81 nM in the data set on HT1080 8 #cells (setting [1]) and 2.699 ng/mL in the data set on HT1080 8 #cells (setting [2]).
For the molecule `N#C[C@@H]1CC(F)(F)CN1C(=O)CNC(=O)c1cc2c(s1)CCN(C(=O)CCC(=O)NCCNC(=O)CCC(C(=O)O)N1CCN(CC(=O)O)CCN(CC(=O)O)CCN(CC(=O)O)CC1)C2` (stereo partly shown) [^177Lu-JHH3, metal not drawn], in the data set with HT1080 2 #FAP cells, the “uptake in other organs compared to the reference compound” value is “lower uptake in other organs” and the “uptake in tumor tissues compared to the reference compound” value is “higher uptake in tumor tissues”.
